# Results taken from ChEMBL document CHEMBL5212743, “Selectivity Literature for EUbOPEN Chemogenomics Library wave 3” (2023).
# Positions count from the first letter of the chain named.
# Legend:
# Conditions in all cases: at 100 nM
# [1] = system: T1, Receptor-type tyrosine-protein kinase FLT3 (Homo sapiens), P36888 [D835Y]; assay: (§1) Selectivity interaction (KinomeScan (DiscoverX)) EUB0000138c FLT3
# T1 sequence (whole entry): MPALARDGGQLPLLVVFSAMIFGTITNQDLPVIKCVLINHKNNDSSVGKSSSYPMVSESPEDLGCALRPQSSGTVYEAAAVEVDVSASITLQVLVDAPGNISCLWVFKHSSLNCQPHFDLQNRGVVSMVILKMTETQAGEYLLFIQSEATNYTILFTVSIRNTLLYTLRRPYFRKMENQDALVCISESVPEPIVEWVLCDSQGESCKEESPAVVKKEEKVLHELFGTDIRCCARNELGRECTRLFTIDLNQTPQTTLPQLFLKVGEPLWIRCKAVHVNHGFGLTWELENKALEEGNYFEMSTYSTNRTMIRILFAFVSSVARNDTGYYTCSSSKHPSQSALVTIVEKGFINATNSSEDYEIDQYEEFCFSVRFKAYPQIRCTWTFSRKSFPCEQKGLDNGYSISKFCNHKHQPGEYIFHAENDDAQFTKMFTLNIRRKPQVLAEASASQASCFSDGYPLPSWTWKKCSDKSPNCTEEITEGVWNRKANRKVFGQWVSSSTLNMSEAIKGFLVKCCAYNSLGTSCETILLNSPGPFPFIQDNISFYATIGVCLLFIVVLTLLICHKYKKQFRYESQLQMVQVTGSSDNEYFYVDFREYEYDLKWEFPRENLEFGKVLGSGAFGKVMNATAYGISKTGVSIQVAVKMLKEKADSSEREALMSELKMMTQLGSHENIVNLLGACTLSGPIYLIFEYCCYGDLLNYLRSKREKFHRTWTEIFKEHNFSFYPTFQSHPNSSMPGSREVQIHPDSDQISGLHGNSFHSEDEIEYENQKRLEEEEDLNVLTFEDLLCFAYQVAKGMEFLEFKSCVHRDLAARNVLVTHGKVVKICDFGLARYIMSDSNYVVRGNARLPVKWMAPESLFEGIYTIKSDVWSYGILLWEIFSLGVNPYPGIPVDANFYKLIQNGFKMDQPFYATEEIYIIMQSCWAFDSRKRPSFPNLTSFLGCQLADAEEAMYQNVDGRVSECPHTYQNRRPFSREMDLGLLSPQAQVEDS
# [2] = system: T2, Receptor-type tyrosine-protein kinase FLT3 (Homo sapiens), P36888 [D835V]; assay: as §1
# T2 sequence (whole entry): T1 sequence (whole entry) with Y835V
# [3] = system: T3, Receptor-type tyrosine-protein kinase FLT3 (Homo sapiens), P36888 [N841I]; assay: as §1
# T3 sequence (whole entry): T1 sequence (whole entry) with Y835D, N841I
structure (smiles),measurement,setting,value
CNC(=O)c1ccc(Nc2ncc(C(F)(F)F)c(NCc3nccnc3N(C)S(C)(=O)=O)n2)cc1 [DEFACTINIB],% of control,[1],5.9%
same,% of control,[2],0.2%
same,% of control,[3],0%
